In patent US20260174780A1, “BISMUTH-THIOL COMPOSITIONS AND METHODS FOR TREATING INFLAMMATORY DISEASES” (Microbion Corporation, priority 2022, published 2026):
“Also recorded” adds a separate entry of the source.

Columns and labels:
AIM2 inflammasome = assay: RT-qPCR of AIM2 inflammasome expression in THP-1 macrophages, uninfected or infected; format: cell-based
Procedure: (§1) THP-1 macrophages were differentiated with 50 ng/ml PMA for 24 hours, followed by 24 hours in media prior to infection. Differentiated THP-1 macrophages were infected with M. avium or M. abscessus for 1 hour with an MOI of 5. Infected cells were washed twice, followed by 1 hour of antibiotic treatment with 200 μg/ml of amikacin to remove extracellular bacteria. After the antibiotic treatment step, cells were washed once more and BisEDT (BIZ) was added at the indicated concentrations. The treatments (see Table 2) included: (1) uninfected, (2) uninfected+range of BisEDT, (3) untreated+infected with M. avium, (4) M. avium infected+BIZ, (5) untreated+M. abscessus, and (6) M. abscessus infected+BIZ. The time points for sample preparation were 48 hours post infection. CFUs were determined as described above and RNA was collected from similar experiments.
(§2) THP-1 RNA from the cells was isolated using the Rneasy mini kit (Qiagen), followed by treatment with Dnase 1 recombinant (Roche Diagnostics) for 1 hour at 37° C. to remove contaminating genomic DNA. The DNase was inactivated with Turbo DNase-inactivation reagent (Turbo DNA-free kit, Thermo Fisher Scientific) for 2 min at 37° C. Inactivation reagent was removed via centrifugation for 1 min at 10,000×g, and RNA transferred to new collection tubes. RNA samples were stored at […] for future processing. cDNA was transcribed from host RNA using the iScript cDNA synthesis kit (Bio-Rad). The quality of cDNA was tested by PCR with Gold 360 master mix using the manufacturer's specifications (Thermo Fisher Scientific). The RT-qPCR reaction was performed using iQ SYBR Green Supermix (Bio-Rad) and an iCycler (CFX Connect Real-Time Systems, Bio-Rad) as previously described (1). Standard curves for each gene were run in each reaction and used to calculate absolute values of mRNA. Gene expression data are presented as relative expression to beta-actin. Primers (Table 3) were designed in Primer3 using sequences from GenBank (National Center for Biotechnology Information).

[1] = tested on: M. abscessus strain 19977; assay: Chronic M. abscessus lung infection in SCID mice, inhaled treatment, lung CFU; format: in vivo, SCID/Beige mice
Procedure: In vivo studies were conducted in mice to separately model chronic M. abscessus infection. The animals were treated for 28 days and grouped according to dosage: vehicle, low dose BisEDT, high dose BisEDT, and amikacin. At the end of treatment, blood, lungs were collected for analysis. […] Histopathology was conducted on lung samples from the in vivo studies.
A total of sixty female SCID/Beige mice between 6-8 weeks of age were used. Mice were placed up to 4 animals per cage and allowed 1 week of acclimation prior to infection.
Inoculums of M. abscessus strain 19977 (MAB) used in this study were made from highly virulent frozen stocks with low passage numbers. Bacteria were allowed to grow to log phase after 4 days on 7H10 media agar plates at 37° C. Once confluent, inoculums were made by suspending bacteria at 10^9 in Hank's balanced salt solution (HBSS) as determined by optical density (O.D.) and further quantified by serial dilution to determine the CFU/mL of suspension. At this higher concentration of bacteria, only 20 μL of inoculum was necessary to deposit […] bacteria per mouse.
On the day of infection mice were anesthetized with isoflurane by the drop jar method. Mice were scruffed in a standard one-handed grip and the nose of the mouse is held of a tube containing gauze containing a small amount of isoflurane. Mice were monitored for breathing and once rapid breaths have slowed down initially the mouse is removed from direct anesthesia and 20 μL of bacterial suspension was deposited on the left nostril. The mice then slowly breath in the droplet. Each mouse was then held in hand until complete consciousness was obtained and then the mouse was replaced into its home cage. After infection was initiated, 3 weeks were allowed to pass in order to allow the bacteria to establish a chronic lung pathology for eventual treatment.
After establishing each infection, 12 mice were euthanized the day before treatment began to determine the baseline bacterial load. Mice were euthanized using CO2 in accordance with the recommendations of the Guide for the Care and Use of Laboratory Animals (NRC 2011). Lungs were collected and homogenized then serial diluted for CFU enumeration.
A nose-only inhalation exposure chamber from CH technologies was used for this experiment. Mice were split into four treatment groups, Vehicle (buffer containing no BisEDT), amikacin (100 μg/kg/day), BisEDT “low” (200 μg/kg/day), and BisEDT “high” (1000 μg/kg/day). Each treatment group consisted of 12 mice. […]
After 28 days of treatment with BisEDT, animals were euthanized by CO2 and secondary cardiac puncture to collect whole blood for quantitation of BisEDT concentration. […] CFUs were determined after serial dilution. […]

NLRP3 inflammasome = assay: RT-qPCR of NLRP3 inflammasome expression in THP-1 macrophages, uninfected or infected; format: cell-based
Procedure: as §1, with “After the antibiotic treatment step, cells were washed once more and BisEDT (BIZ) was added at the indicated concentrations.” left out
as §2

Q: `C1C[S][Bi]([S]CC[S][Bi]2[S]CC[S]2)[S]1` [BisEDT, 1,2-(Bis(1,3-dithia-2-bismolane)thio)ethane] was tested. Which “AIM2 gene expression relative to beta-actin” value (AIM2 inflammasome; M. abscessus infected THP-1 cells + 1 μg/ml BisEDT) did it give?
A: even greater increase of expression

Q: And the “AIM2 gene expression relative to beta-actin” value (AIM2 inflammasome; M. avium infected THP-1 cells + BisEDT (2, 4 μg/ml))?
A: did not change the gene expression

Q: And the “AIM2 gene expression relative to beta-actin” value (AIM2 inflammasome; uninfected THP-1 macrophages, 0.5-4 μg/ml BisEDT, 48 hours)?
A: The higher the dose, the more AIM2 gene expression was reduced; also recorded: inhibits AIM2 and NLRP3 inflammasome expression

Q: What about the “CFU count in lung homogenates” value ([1]; 200 μg/kg (low)) of the same molecule?
A: bacteriostatic effect

Q: And the “CFU count in lung homogenates” value ([1]; 1000 μg/kg (high) delivered to the lungs)?
A: bactericidal

Q: And the “lung CFU, high-dose group vs vehicle control” value ([1]; 1000 μg/kg/day, p-value=0.0163)?
A: statistically significant difference

Q: What about the “lung CFU” value ([1]; inhaled 200 and 1000 μg/kg/day, 28 days, Kruskal-Wallis test) of the same molecule?
A: dose-dependent response

Q: What about the “inhibitory effect on NLRP3 expression” value (NLRP3 inflammasome; BisEDT used after the infections) of the same molecule?
A: the inhibitory effect was not observed

Q: What about the NLRP3 expression (NLRP3 inflammasome; M. abscessus (MAB 19977) infected cells pretreated with 0.5 μg/ml) of the same molecule?
A: reduced NLRP3 expression

Q: What about the NLRP3 expression (NLRP3 inflammasome; M. abscessus infected cells) of the same molecule?
A: remained unchanged

Q: And the NLRP3 expression (NLRP3 inflammasome; M. avium (MAH 104) infected cells pre-treated with 2 μg/ml, vs M. avium only infected cells)?
A: higher NLRP3 expression

Q: What about the NLRP3 expression (NLRP3 inflammasome; MAH 104 infection, 4 μg/ml treatment, vs MAH 104 infected cells) of the same molecule?
A: reduced NLRP3 expression

Q: What about the NLRP3 inhibition (NLRP3 inflammasome; NTM-infected macrophages) of the same molecule?
A: even greater dose-related NLRP3 inhibition

Q: And the NLRP3 expression (NLRP3 inflammasome; pre-treatment with 1 μg/ml prior to MAB 19977 infection)?
A: did not impact NLRP3 expression

Q: What about the “NLRP3 inflammasome expression relative to beta-actin” value (NLRP3 inflammasome; uninfected THP-1 cells) of the same molecule?
A: dose-related inhibitory effect; also recorded: inhibits AIM2 and NLRP3 inflammasome expression
